# Test results taken from patent US8436210B2, “Amide compound and bacterial disease control agent for agricultural and horticultural use” (The University of Tokyo, priority 2007, dated 2013).
# Columns and labels:
# Burkholderia glumae [1] = test: Test Example 1: toxoflavin (toxin) production by Burkholderia glumae in LB culture; type: cell-based; settings: for toxin doses (toxoflavin) produced by bacteria as concentration of compound increased: 0, 20, 40, 60, 80 or 100 μM, shake culturing 20 hours, LB medium, FIG. 1
# Experimental: Burkholderia glumae was inoculated into an LB culture medium (produced by BD, Difco LB Broth: containing tryptone (10.0 g), yeast extract (5.0 g), and sodium chloride (10.0 g)), and cultured at 37° C. overnight. The broth thus obtained was subjected to bacterial collection using a centrifuge, and the collected bacteria were washed with an LB culture medium twice using a fresh LB culture medium each time. A fresh LB culture medium was added to the bacteria, and then Compound (1a-3) produced in Production Example 3 was added thereto in such a manner that its final concentration became a predetermined value (i.e., 0, 20, 40, 60, 80 or 100 μM), followed by shake culturing for 20 hours. The amount of toxoflavin produced by the bacteria in the broth was obtained by the following procedure.
# Each broth was filtered by a 0.22-μm membrane filter, and 1 mL of the filtrate was isolated. One mL of chloroform was added to the filtrate, followed by extraction. The thus-obtained chloroform layer was concentrated under reduced pressure, and an 80% (V/V) aqueous methanol solution was added to and dissolved in the residue. The absorbance (at 260 nm) of the solution was measured, and the toxin doses were calculated from the calibration curve, which was obtained using a chemically synthesized standard toxin.
# The same test was conducted as a comparative test using the compound (comparative compound) shown by the formula below disclosed in Patent Document 1.
# Burkholderia glumae [2] = test: Test Example 2: onset of Burkholderia glumae infection on rice sprayed with test liquid; type: in vivo; settings: for percentage of flower clusters with score 0 / percentage of flower clusters with score 1 / percentage of flower clusters with score 2 / percentage of flower clusters with score 3 / percentage of flower clusters with score 4 / percentage of flower clusters with score 5: Korean rice (Milyang 23), 7 days; for percentage of flower clusters with score 1: score 1 = 0.1% to 20% onset; for percentage of flower clusters with score 2: score 2 = 20% to 40% onset; for percentage of flower clusters with score 3: score 3 = 40% to 60% onset; for percentage of flower clusters with score 4: score 4 = 60% to 80% onset; for percentage of flower clusters with score 5: score 5 = 80% to 100% onset
# Experimental: […] In a separate procedure, Burkholderia glumae were seeded to an LB culture medium and cultured overnight at 37° C., preparing an broth for infection.
# Each test liquid (10 mL) was sprayed onto Korean rice (Milyang 23) raised in a hothouse until the flowering stage. The broth for infection was sprayed onto the rice one hour after the application of the test liquid. After cultivation for seven days, the onset of Burkholderia glumae infection on the rice was evaluated.
# The evaluation was conducted by picking an ear from each plant, making a total of three ears. In each flower cluster (grain), the percentage of the portion that suffered from the onset of infection (i.e., the portion that turned brown) caused by the toxoflavin produced by Burkholderia glumae was visually observed and scored based on the scale shown below. The percentage of the total flower clusters was obtained and scored to indicate the onset of the infection.
# The percentage that suffered from the onset of infection:
# Not less than 0.1% and not greater than 20%: 1
# Not less than 20% and not greater than 40%: 2
# Not less than 40% and not greater than 60%: 3
# Not less than 60% and not greater than 80%: 4
# In this evaluation, three flower clusters (grains) having the same conditions were prepared, and reproducibility was confirmed by repeating the same evaluation three times. The same evaluation was also conducted as a comparative test except that water was used instead of the test liquid. Further, the same evaluation was conducted to serve as a blank except that water was used instead of both the test liquid and the broth for infection.
# Burkholderia glumae [3] = test: Test Example 3: onset of Burkholderia glumae infection on rice sprayed with test liquid; type: in vivo; settings: for percentage of flower clusters with score 0: score 0 = less than 0.1% onset; for percentage of flower clusters with score 0 / percentage of flower clusters with score 1 / percentage of flower clusters with score 2 / percentage of flower clusters with score 3 / percentage of flower clusters with score 4 / percentage of flower clusters with score 5: Korean rice (Milyang 23), 7 days, infection broth sprayed 1 h after treatment; for percentage of flower clusters with score 1: score 1 = 0.1% to 20% onset; for percentage of flower clusters with score 2: score 2 = 20% to 40% onset; for percentage of flower clusters with score 3: score 3 = 40% to 60% onset; for percentage of flower clusters with score 4: score 4 = 60% to 80% onset; for percentage of flower clusters with score 5: score 5 = 80% to 100% onset
# Experimental: Each test liquid (10 mL) was sprayed onto Korean rice ([…] 23) raised in a hothouse until the flowering stage. The broth for infection was sprayed onto the rice one hour after the application of the test liquid. After cultivation for seven days, the onset of Burkholderia glumae infection on the rice was evaluated in the same manner as in Test Example 2. The same evaluation was conducted as the comparative test in the same manner except that water was used instead of the test liquid. Further, the same evaluation was conducted to serve as a blank using water instead of both the test liquid and the broth for infection.
smiles,measurement,setting,value
"CCCCCCCC(=O)NC1=CC(=O)CCC1 [Compound (1a-3), N-(3-oxo-cyclohexen-1-yl)octanamide]",toxin doses (toxoflavin) produced by bacteria as concentration of compound increased,Burkholderia glumae [1],remarkably decreased
same,percentage of flower clusters with score 0,"Burkholderia glumae [2]; 50 μM spray, score 0 = less than 0.1% of portion with onset of infection",73%
same,percentage of flower clusters with score 1,Burkholderia glumae [2]; 50 μM spray,20%
same,percentage of flower clusters with score 2,Burkholderia glumae [2]; 50 μM spray,6%
same,percentage of flower clusters with score 3,Burkholderia glumae [2]; 50 μM spray,1%
same,percentage of flower clusters with score 4,Burkholderia glumae [2]; 50 μM spray,0%
same,percentage of flower clusters with score 5,Burkholderia glumae [2]; 50 μM spray,0%
same,percentage of flower clusters with score 0,"Burkholderia glumae [2]; 100 μM spray, score 0 = less than 0.1% onset",85%
same,percentage of flower clusters with score 1,Burkholderia glumae [2]; 100 μM spray,10%
same,percentage of flower clusters with score 2,Burkholderia glumae [2]; 100 μM spray,3%
same,percentage of flower clusters with score 3,Burkholderia glumae [2]; 100 μM spray,0%
same,percentage of flower clusters with score 4,Burkholderia glumae [2]; 100 μM spray,1%
same,percentage of flower clusters with score 5,Burkholderia glumae [2]; 100 μM spray,1%
same,percentage of flower clusters with score 0,"Burkholderia glumae [2]; 150 μM spray, score 0 = less than 0.1% onset",84%
same,percentage of flower clusters with score 1,Burkholderia glumae [2]; 150 μM spray,9%
same,percentage of flower clusters with score 4,Burkholderia glumae [2]; 150 μM spray,1%
same,percentage of flower clusters with score 5,Burkholderia glumae [2]; 150 μM spray,1%
same,percentage of flower clusters with score 2,Burkholderia glumae [2],4%
same,percentage of flower clusters with score 3,Burkholderia glumae [2],1%
same,onset of Burkholderia glumae on rice,"Burkholderia glumae [2]; test liquid sprayed onto rice, then broth for infection, Table 1 and FIG. 2",prevented
same,percentage of flower clusters with score 0,Burkholderia glumae [3]; 50 μM spray,62%
same,percentage of flower clusters with score 1,Burkholderia glumae [3]; 50 μM spray,15%
same,percentage of flower clusters with score 2,Burkholderia glumae [3]; 50 μM spray,19%
same,percentage of flower clusters with score 3,Burkholderia glumae [3]; 50 μM spray,2%
same,percentage of flower clusters with score 4,Burkholderia glumae [3]; 50 μM spray,1%
same,percentage of flower clusters with score 5,Burkholderia glumae [3]; 50 μM spray,1%
same,percentage of flower clusters with score 0,Burkholderia glumae [3]; 100 μM spray,82%
same,percentage of flower clusters with score 1,Burkholderia glumae [3]; 100 μM spray,9%
same,percentage of flower clusters with score 2,Burkholderia glumae [3]; 100 μM spray,7%
same,percentage of flower clusters with score 3,Burkholderia glumae [3]; 100 μM spray,1%
same,percentage of flower clusters with score 4,Burkholderia glumae [3]; 100 μM spray,1%
same,percentage of flower clusters with score 5,Burkholderia glumae [3]; 100 μM spray,0%
same,percentage of flower clusters with score 0,Burkholderia glumae [3]; 150 μM spray,89%
same,percentage of flower clusters with score 1,Burkholderia glumae [3]; 150 μM spray,8%
same,percentage of flower clusters with score 3,Burkholderia glumae [3]; 150 μM spray,1%
same,percentage of flower clusters with score 2,Burkholderia glumae [3],1%
same,percentage of flower clusters with score 4,Burkholderia glumae [3],1%
same,percentage of flower clusters with score 5,Burkholderia glumae [3],0%
same,onset of Burkholderia glumae on rice,"Burkholderia glumae [3]; test liquid sprayed onto rice, then broth for infection, Table 2 and FIG. 3",prevented
CCCCCCCCCC(=O)CC(=O)Nc1ccccc1O [comparative compound],toxin doses (toxoflavin) produced by bacteria as concentration of compound increased,Burkholderia glumae [1],almost no change
same,control effect on bacterial infections,Burkholderia glumae [1]; statement in background referring to the Test Example,no control effect
